The record followed here is article PMC6751662, “Pharmacological and functional similarities of the human neuropeptide Y system in C. elegans challenges phylogenetic views on the FLP/NPR system” (Cell Communication and Signaling : CCS, 2019).

Like-named read-outs stand apart in the source and are kept apart here. Ends that are not written are not given here.

In one test the test system is NPR-6. Description: cAMP reporter gene assay, Gi/o (inhibition of forskolin-induced cAMP), NPR-6. Format: cell-based, C. elegans. Conditions: transiently transfected HEK293 cells, mean of at least three independent experiments; for cAMP, x-fold of forskolin (mean), NPR-6: 1 µM forskolin set to 1.00; for Gi (Gs) [x-fold of forskolin], NPR-6, mean: inhibition of cAMP production induced by 1 µM forskolin (set to 1.00). The protocol:
(§1) Activation of Gs and Gi/o was assessed with a cAMP reporter gene assay. HEK293 cells grown to 70–80% confluency in 6-well plates were transiently co-transfected with vectors encoding the receptor and the cAMP reporter gene plasmid pGL4.29 [luc2P/CRE/Hygro] (Promega; 4 μg total, 1:1 ratio) using Metafectene Pro (3 μl/μg DNA; Biontex) following the manufacturer’s instructions. 16 h post transfection, the cells were seeded into white 384-well plates at a density of 20,000 cells/well. On the next day, the medium was removed and the cells were stimulated with 20 μl of peptide solution (or forskolin as positive control) in serum-free DMEM for 4 h. For measuring Gi/o activity, the peptide solutions additionally contained 1 μM forskolin to elevate cellular cAMP levels. After incubation, the luciferase substrate OneGlo in lysis buffer (Promega) was added and the luminescence was measured in a microplate reader Tecan Spark (Tecan). Data were analyzed with GraphPad Prism 5.03 and are shown as fold of basal or fold of forskolin in case of Gαi/o activity.
(§2) For in vitro activation, data is presented as mean ± SEM of at least three independent experiments conducted in technical triplicate. […] For the C. elegans NPRs, we considered the strongest response elicited by any of the peptides downstream of a particular receptor as the receptor’s maximal signal. This may or may not be the biological maximum that can be reached by the ‘true’ endogenous agonist. For the human receptors, the response to the established endogenous agonist reflected the maximal signal.
Background: Reporter assays use an easily measured gene product as a stand-in for the process of interest.

Another test addresses T1, QRFPR (Homo sapiens, UniProt Q96P65).
T1 construct: expressed in transfected cells; host or cells: HEK293, transient
T1 sequence (Q96P65 1-431): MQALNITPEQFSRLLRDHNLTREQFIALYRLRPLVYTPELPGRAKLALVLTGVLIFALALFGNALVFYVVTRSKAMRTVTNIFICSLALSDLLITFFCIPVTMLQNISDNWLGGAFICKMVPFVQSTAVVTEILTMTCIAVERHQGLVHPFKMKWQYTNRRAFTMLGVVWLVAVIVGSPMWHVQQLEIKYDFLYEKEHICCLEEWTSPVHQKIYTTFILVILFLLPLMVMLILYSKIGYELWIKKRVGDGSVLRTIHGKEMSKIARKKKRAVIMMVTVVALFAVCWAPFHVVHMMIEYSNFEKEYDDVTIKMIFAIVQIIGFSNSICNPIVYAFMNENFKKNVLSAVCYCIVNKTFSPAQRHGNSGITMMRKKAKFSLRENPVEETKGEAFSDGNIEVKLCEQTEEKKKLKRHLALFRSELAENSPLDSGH
Description: IP accumulation assay, endogenous Gαq coupling, QRFPR. Conditions: transiently transfected HEK293 cells, mean of at least three independent experiments. In kind it is cell-based. The protocol:
(§3) For measuring IP accumulation, HEK293 cells grown to 70–80% confluency in 6-well plates were transiently co-transfected using Metafectene Pro (2.5 μl/μg DNA; Biontex) with plasmids containing receptor and/or mock (empty pcDNA3.1) (for endogenous Gq-coupling) using 4 μg total DNA in a ratio of 3:1 following the manufacturer’s instructions. For testing Gα16- and GαΔ6qi4myr-coupling, plasmids encoding the corresponding Gα protein were co-transfected instead of mock. Gα16 is naturally promiscuous and stimulates the phospholipase C (PLC) pathway leading to IP production, while the exchange of the C-terminal four amino acids of Gαq for the corresponding residues of Gαi1 in the chimeric GαΔ6qi4myr confers the ability to couple to Gi/o protein-preferring receptors but still stimulate PLC, thus specifically redirecting downstream cellular signaling. 16 h post transfection, the cells were seeded into white 384-well plates at a density of 20,000 cells/well. Media was removed 24 h later and the cells were incubated with the indicated concentration of peptides for 1 h in HBSS + 20 mM LiCl. IP accumulation was measured with the HTRF-based IP-One Gq kit (Cisbio) on a microplate reader (Tecan Spark).
as §2

The next test has as its target T2, NPR-1 (Caenorhabditis elegans, UniProt Q18534).
T2 sequence (Q18534 1-457): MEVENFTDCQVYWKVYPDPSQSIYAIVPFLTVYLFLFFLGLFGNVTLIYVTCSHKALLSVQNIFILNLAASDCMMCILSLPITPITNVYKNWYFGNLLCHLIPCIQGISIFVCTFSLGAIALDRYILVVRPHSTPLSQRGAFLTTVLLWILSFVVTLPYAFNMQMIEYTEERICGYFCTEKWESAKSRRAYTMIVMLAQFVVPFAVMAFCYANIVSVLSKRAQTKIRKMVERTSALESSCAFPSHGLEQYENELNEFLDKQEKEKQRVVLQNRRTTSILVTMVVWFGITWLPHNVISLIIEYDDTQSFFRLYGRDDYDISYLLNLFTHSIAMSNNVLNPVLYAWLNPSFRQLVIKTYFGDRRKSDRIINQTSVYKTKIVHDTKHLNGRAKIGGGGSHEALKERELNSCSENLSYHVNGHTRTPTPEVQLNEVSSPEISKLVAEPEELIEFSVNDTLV
Description: cAMP reporter gene assay, Gi/o (inhibition of forskolin-induced cAMP), NPR-1. Further details: host or cells: HEK293. Conditions: for cAMP, x-fold of forskolin (mean), NPR-1 / Gi (Gs) [x-fold of forskolin], NPR-1, mean: inhibition of cAMP production induced by 1 µM forskolin (set to 1.00), transiently transfected HEK293 cells, mean of at least three independent experiments; for cAMP, x-fold of forskolin (mean), NPR-1: lower = higher Gi/o activity; for Emax: HEK293, read-out: Emax ± SEM [%]. Format: cell-based, C. elegans. The protocol: as §1, §2

The target of the next test is T3, Y4R (Homo sapiens, UniProt P50391).
T3 construct: expressed in transfected cells; host or cells: HEK293, transient
Description: IP accumulation assay, chimeric GαΔ6qi4myr, Y4R. In kind it is cell-based. The following applies: chimeric GαΔ6qi4myr co-transfected, transiently transfected HEK293 cells, mean of at least three independent experiments. The protocol: as §3, §2

Another test deals with T4, Y5R (Homo sapiens, UniProt Q15761).
T4 construct: expressed in transfected cells; host or cells: HEK293, transient
T4 sequence (Q15761 1-445): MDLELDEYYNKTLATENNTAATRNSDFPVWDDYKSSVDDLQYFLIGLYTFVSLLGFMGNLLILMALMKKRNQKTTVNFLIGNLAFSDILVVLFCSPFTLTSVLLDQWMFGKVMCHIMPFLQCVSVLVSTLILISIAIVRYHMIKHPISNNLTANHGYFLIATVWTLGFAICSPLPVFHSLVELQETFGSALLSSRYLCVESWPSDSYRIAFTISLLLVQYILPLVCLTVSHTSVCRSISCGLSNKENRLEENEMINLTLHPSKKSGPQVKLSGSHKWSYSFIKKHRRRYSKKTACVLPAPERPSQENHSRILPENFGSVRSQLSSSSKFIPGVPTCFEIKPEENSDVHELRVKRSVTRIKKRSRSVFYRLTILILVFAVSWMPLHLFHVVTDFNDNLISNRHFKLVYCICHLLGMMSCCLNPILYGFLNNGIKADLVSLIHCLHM
Description: IP accumulation assay, chimeric GαΔ6qi4myr, Y5R. In kind it is cell-based. The following applies: chimeric GαΔ6qi4myr co-transfected, transiently transfected HEK293 cells, mean of at least three independent experiments. The protocol:
as §3, §2

The next test addresses T5, NPFF1R (Homo sapiens, UniProt Q9GZQ6).
T5 construct: expressed in transfected cells; host or cells: HEK293, transient
Nature of the test: IP accumulation assay, chimeric GαΔ6qi4myr, NPFF1R. The following applies: chimeric GαΔ6qi4myr co-transfected, transiently transfected HEK293 cells, mean of at least three independent experiments. Format: cell-based. The protocol:
as §3, §2

As a reminder, the EC50 is the concentration needed to bring the measured effect to its halfway point. One may read the Emax as the maximal effect, on the per cent scale that the assay sets.

T5 sequence (Q9GZQ6 whole entry): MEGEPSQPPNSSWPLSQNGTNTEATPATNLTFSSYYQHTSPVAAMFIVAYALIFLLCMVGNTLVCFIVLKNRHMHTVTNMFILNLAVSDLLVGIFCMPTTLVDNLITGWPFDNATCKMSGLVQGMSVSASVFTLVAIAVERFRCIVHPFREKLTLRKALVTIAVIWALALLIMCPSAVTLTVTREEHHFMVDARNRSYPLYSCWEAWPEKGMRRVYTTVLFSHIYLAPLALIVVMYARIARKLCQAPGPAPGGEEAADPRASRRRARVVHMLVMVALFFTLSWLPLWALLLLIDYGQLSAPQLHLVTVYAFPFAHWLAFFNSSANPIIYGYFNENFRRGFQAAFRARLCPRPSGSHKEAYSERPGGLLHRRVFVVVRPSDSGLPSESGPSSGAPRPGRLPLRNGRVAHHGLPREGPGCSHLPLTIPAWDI
T3 sequence (P50391 whole entry): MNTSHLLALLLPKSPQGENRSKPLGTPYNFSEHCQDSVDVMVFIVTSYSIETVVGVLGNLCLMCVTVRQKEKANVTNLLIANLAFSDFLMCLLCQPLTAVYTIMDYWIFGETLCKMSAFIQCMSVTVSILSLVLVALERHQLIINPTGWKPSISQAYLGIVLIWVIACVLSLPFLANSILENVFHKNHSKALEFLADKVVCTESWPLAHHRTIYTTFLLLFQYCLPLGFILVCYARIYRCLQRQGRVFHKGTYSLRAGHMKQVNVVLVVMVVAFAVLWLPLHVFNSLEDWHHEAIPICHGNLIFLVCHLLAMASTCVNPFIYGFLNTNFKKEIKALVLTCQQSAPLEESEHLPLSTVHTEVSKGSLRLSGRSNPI

Turning to “APLEGFEDMSGFLRTIDGIQKPRF-NH2 [FLP-33, NPY-like C. elegans FLP with C-terminal RxRF/Ya signature]”, the “cAMP, x-fold of forskolin (mean), NPR-6” value in the test on NPR-6 (0.1 µM peptide) was 0.86 x-fold of forskolin; in the test with NPR-6 (10 µM peptide), 0.91 x-fold of forskolin. Also, the figures for the “IP accumulation, x-fold of basal (mean), QRFPR#” value (shortened to “IP accumulation, x-fold … QRFPR#”) on QRFPR (0.1 µM peptide) and on QRFPR (10 µM peptide) were 0.91 x-fold of basal and 0.80 x-fold of basal, respectively. In addition, the “cAMP, x-fold of forskolin (mean), NPR-1” value on NPR-1 (0.1 µM peptide) is 0.72 x-fold of forskolin; on NPR-1 (10 µM peptide), 0.82 x-fold of forskolin.
Consider RGPSGPLAF-NH2 [[R8A]FLP-15-2], for which the results for the “Gi (Gs) [x-fold of forskolin], NPR-6, mean” value in the test with NPR-6 (0.1 µM peptide) and with NPR-6 (10 µM peptide) were 0.92 x-fold of forskolin and 0.99 x-fold of forskolin, respectively. Besides, the “Gi (Gs) [x-fold of forskolin], NPR-1, mean” value on NPR-1 (0.1 µM peptide) is 0.84 x-fold of forskolin; at NPR-1 (10 µM peptide), 0.85 x-fold of forskolin.
For “NPENDTPFGTMRF-NH2 [FLP-3-4, C. elegans FMRFamide-like peptide, C-terminally amidated, synthesized by SPPS]”, the “cAMP, x-fold of forskolin (mean), NPR-6” value is listed as 0.85 x-fold of forskolin in the test with NPR-6 (0.1 µM peptide) and 0.26 x-fold of forskolin with NPR-6 (10 µM peptide). For the same substance, the “IP accumulation, x-fold of basal (mean), Y4R” value on Y4R (0.1 µM peptide) was 1.31 x-fold of basal; on Y4R (10 µM peptide) it was 1.29 x-fold of basal. Further, the “IP accumulation, x-fold of basal (mean), Y5R” value at Y5R (0.1 µM peptide) is given as 0.67 x-fold of basal; on Y5R (10 µM peptide), 1.41 x-fold of basal. The “IP accumulation, x-fold of basal (mean), NPFF1R” value at NPFF1R (0.1 µM peptide) was 1.29 x-fold of basal; on NPFF1R (10 µM peptide), 3.42 x-fold of basal. The “IP accumulation, x-fold … QRFPR#” value is 1.42 x-fold of basal at QRFPR (0.1 µM peptide) and 1.52 x-fold of basal on QRFPR (10 µM peptide). The “cAMP, x-fold of forskolin (mean), NPR-1” value is 0.87 x-fold of forskolin at NPR-1 (0.1 µM peptide) and 0.89 x-fold of forskolin at NPR-1 (10 µM peptide).
The substance GLGPRPLRF-NH2 [FLP-21] came in with an EC50 at NPR-1 of 0.97 nM. Moreover, the Emax on NPR-1 (SEM) was -0.97 ± 0.15%.
Regarding RGPSGPLRF-NH2 [FLP-15-2], on NPR-1 (SEM), the Emax was -0.92 ± 0.1% and the EC50 was 25.1 nM.
In the case of “TPDINPAWYASRGIRPVGRF-NH2 [PrRP20, human prolactin-releasing peptide, 20 residues, reference compound]”, the “cAMP, x-fold of forskolin (mean), NPR-6” value in the test on NPR-6 (0.1 µM peptide) is on record as 0.96 x-fold of forskolin; in the test on NPR-6 (10 µM peptide), 1.19 x-fold of forskolin. Also, the figures for the “IP accumulation, x-fold of basal (mean), Y4R” value on Y4R (0.1 µM peptide) and at Y4R (10 µM peptide) were 0.80 x-fold of basal and 0.89 x-fold of basal, respectively. For the same substance, the “IP accumulation, x-fold of basal (mean), Y5R” value at Y5R (0.1 µM peptide) is reported as 1.01 x-fold of basal; on Y5R (10 µM peptide) it was 5.90 x-fold of basal. Further, the “IP accumulation, x-fold of basal (mean), NPFF1R” value on NPFF1R (0.1 µM peptide) is given as 0.94 x-fold of basal; on NPFF1R (10 µM peptide), 2.37 x-fold of basal. Moreover, the “IP accumulation, x-fold … QRFPR#” value was 0.59 x-fold of basal on QRFPR (0.1 µM peptide) and 0.63 x-fold of basal on QRFPR (10 µM peptide). For the same substance, the “cAMP, x-fold of forskolin (mean), NPR-1” value at NPR-1 (0.1 µM peptide) was 1.14 x-fold of forskolin; on NPR-1 (10 µM peptide), 1.45 x-fold of forskolin.
Consider SEVPGVLRF-NH2 [FLP-18-5], for which the Emax at NPR-1 (SEM) was -0.53 ± 0.2%.
On to “GLGPRPLAF-NH2 [[R8A]FLP-21, R8A control peptide of FLP-21, penultimate arginine exchanged for an alanine]”, for which the “Gi (Gs) [x-fold of forskolin], NPR-6, mean” value with NPR-6 (0.1 µM peptide) was 1.00 x-fold of forskolin; in the test with NPR-6 (10 µM peptide), 0.86 x-fold of forskolin. The “Gi (Gs) [x-fold of forskolin], NPR-1, mean” value is reported as 0.90 x-fold of forskolin at NPR-1 (0.1 µM peptide) and 0.89 x-fold of forskolin on NPR-1 (10 µM peptide).
Turning to “EASAFGDIIGELKGKGLGGRMRF-NH2 [FLP-27, NPY-like C. elegans FLP with C-terminal RxRF/Ya signature]”, the entries for the “cAMP, x-fold of forskolin (mean), NPR-6” value in the test on NPR-6 (0.1 µM peptide) and with NPR-6 (10 µM peptide) were 1.02 x-fold of forskolin and 0.88 x-fold of forskolin, respectively. The “IP accumulation, x-fold … QRFPR#” value on QRFPR (0.1 µM peptide) was 0.87 x-fold of basal; on QRFPR (10 µM peptide), 0.95 x-fold of basal. The “cAMP, x-fold of forskolin (mean), NPR-1” value at NPR-1 (0.1 µM peptide) is given as 0.91 x-fold of forskolin; on NPR-1 (10 µM peptide) it was 0.71 x-fold of forskolin.
